Read-outs that look alike come from different tables or passages of the source.
How the values were obtained:
Experiment in all cases: Greenhouse test, pre-emergence treatment
ABUTH = assay type: in vivo, Abutilon theophrasti; details: Abutilon theophrasti, 480 h
Description: (§1) The culture containers used were plastic flowerpots containing loamy sand with approximately 3.0% of humus as the substrate. The seeds of the test plants were sown separately for each species.
(§2) For the pre-emergence treatment, the active ingredients, which had been suspended or emulsified in water, were applied directly after sowing by means of finely distributing nozzles. The containers were irrigated gently to promote germination and growth and subsequently covered with transparent plastic hoods until the plants had rooted. This cover caused uniform germination of the test plants, unless this had been impaired by the active ingredients.
(§3) Depending on the species, the plants were kept at 10-25° C. or 20-35° C., respectively.
(§4) The test period extended over 2 to 4 weeks. During this time, the plants were tended, and their response to the individual treatments was evaluated.
(§5) Evaluation was carried out using a scale from 0 to 100. 100 means no emergence of the plants, or complete destruction of at least the aerial moieties, and 0 means no damage, or normal course of growth. A moderate herbicidal activity is given at values of at least 60, a good herbicidal activity is given at values of at least 70, and a very good herbicidal activity is given at values of at least 85.
(§6) The respective stated components a and b, and if appropriate, c were formulated as a 10% by weight strength emulsion concentrate and, with addition of the amount of solvent system, introduced into the spray liquor used for applying the active compound.
(§7) In the examples, the solvent used was water.
(§8) In the examples below, using the method of S. R. Colby (1967) “Calculating synergistic and antagonistic responses of herbicide combinations”, Weeds 15, p. 22ff., the value E, which is expected if the activity of the individual active compounds is only additive, was calculated. E=X+Y−(X·Y/100) where • X=percent activity using active compound a at an application rate A; • Y=percent activity using active compound b at an application rate B; • E=expected activity (in %) by a+b at application rates A+B.
(§9) If the value found experimentally is higher than the value E calculated according to Colby, a synergistic effect is present.

POLCO = assay type: in vivo, Polygonum convolvulus; details: pre-emergence
Description: as §1, §2, §3, §4, §5, §6, §7, §8, §9

ANTAR = assay type: in vivo; details: Anthemis arvensis, 480 h, 20 DAT, read-out: observed % activity
Description: as §1, §2, §3, §4, §5, §6, §7, §8, §9

COMBE = assay type: in vivo, Commelina benghalensis; details: Commelina benghalensis, pre-emergence, 480 h
Description: as §1, §2, §3, §4, §5, §6, §7, §8, §9

EPHHL = assay type: in vivo, Euphorbia heterophylla; details: Euphorbia heterophylla, pre-emergence, 480 h
Description: as §1, §2, §3, §4, §5, §6, §7, §8, §9

GALAP = assay type: in vivo, Galium aparine; details: Galium aparine, pre-emergence, 480 h
Description: as §1, §2, §3, §4, §5, §6, §7, §8, §9

GERPU = assay type: in vivo, Geranium pusillum; details: Geranium pusillum, pre-emergence, 480 h
Description: as §1, §2, §3, §4, §5, §6, §7, §8, §9

KCHSC = assay type: in vivo, Kochia scoparia; details: Bassia scoparia, pre-emergence, 480 h
Description: as §1, §2, §3, §4, §5, §6, §7, §8, §9

IPOHE = assay type: in vivo, Ipomoea hederacea; details: Ipomoea hederacea, 480 h
Description: as §1, §2, §3, §4, §5, §6, §7, §8, §9

SIDRH = assay type: in vivo, Sida rhombifolia; details: Sida rhombifolia, pre-emergence, 480 h
Description: as §1, §2, §3, §4, §5, §6, §7, §8, §9

CENCY = assay type: in vivo; details: 480 h, individual, read-out: observed % activity 20 DAT
[1] = 250 g ai/ha, 20 DAT, read-out: observed % activity
[2] = 500 g ai/ha, 20 DAT, read-out: observed % activity
[3] = 6 g ai/ha, 20 DAT, read-out: observed % activity
[4] = 12 g ai/ha, 20 DAT, read-out: observed % activity

Cc1ccc(NC(=O)N(C)C)cc1Cl [chlorotoluron]
inhibition at 250 g/ha (ABUTH; [1]): 0% | inhibition at 500 g/ha (ABUTH; [2]): 0% | inhibition at 125 g/ha (ABUTH; ABUTH, individual, use rate 125 g ai/ha, read-out: observed % activity 20 DAT): 0% | inhibition at 250 g/ha (ABUTH; ABUTH, individual, use rate 250 g ai/ha, read-out: observed % activity 20 DAT): 0% | inhibition at 250 g/ha (POLCO; Fallopia convolvulus, 480 h, 250 g ai/ha, 20 DAT, read-out: observed % activity): 0% | inhibition at 500 g/ha (POLCO; Fallopia convolvulus, 480 h, 500 g ai/ha, 20 DAT, read-out: observed % activity): 20% | inhibition at 250 g/ha (POLCO; Fallopia convolvulus, 480 h, POLCO, individual, use rate 250 g ai/ha, read-out: observed % activity 20 DAT): 0% | inhibition at 250 g/ha (ANTAR; 250 g ai/ha): 45% | inhibition at 500 g/ha (ANTAR; 500 g ai/ha): 45% | inhibition at 250 g/ha (COMBE; [1]): 20% | inhibition at 125 g/ha (COMBE; COMBE, individual, use rate 125 g ai/ha, read-out: observed % activity 20 DAT): 0% | inhibition at 250 g/ha (COMBE; COMBE, individual, use rate 250 g ai/ha, read-out: observed % activity 20 DAT): 0% | inhibition at 250 g/ha (EPHHL; [1]): 0% | inhibition at 250 g/ha (EPHHL; EPHHL, individual, use rate 250 g ai/ha, read-out: observed % activity 20 DAT): 15% | inhibition at 500 g/ha (GALAP; [2]): 50% | inhibition at 125 g/ha (GALAP; GALAP, individual, use rate 125 g ai/ha, read-out: observed % activity 20 DAT): 25% | inhibition at 250 g/ha (GALAP; GALAP, individual, use rate 250 g ai/ha, read-out: observed % activity 20 DAT): 30% | inhibition at 250 g/ha (GERPU; [1]): 25% | inhibition at 500 g/ha (GERPU; [2]): 20% | inhibition at 125 g/ha (GERPU; GERPU, individual, use rate 125 g ai/ha, read-out: observed % activity 20 DAT): 25% | inhibition at 250 g/ha (GERPU; GERPU, individual, use rate 250 g ai/ha, read-out: observed % activity 20 DAT): 25% | inhibition at 250 g/ha (KCHSC; [1]): 20% | inhibition at 500 g/ha (KCHSC; [2]): 50% | inhibition at 125 g/ha (KCHSC; KCHSC, individual, use rate 125 g ai/ha, read-out: observed % activity 20 DAT): 15% | inhibition at 500 g/ha (IPOHE; [2]): 0% | inhibition at 250 g/ha (IPOHE; IPOHE, individual, use rate 250 g ai/ha, read-out: observed % activity 20 DAT): 0% | inhibition at 250 g/ha (SIDRH; [1]): 0% | inhibition at 500 g/ha (SIDRH; [2]): 0% | inhibition at 125 g/ha (CENCY; use rate 125 g ai/ha): 20% | inhibition at 250 g/ha (CENCY; use rate 250 g ai/ha): 0%

Cc1nn(-c2cc(NS(C)(=O)=O)c(Cl)cc2Cl)c(=O)n1C(F)F [Sulfentrazone, sulfentrazone]
inhibition at 6 g/ha (ABUTH; [3]): 20% | inhibition at 12 g/ha (ABUTH; [4]): 45% | inhibition at 10 g/ha (ABUTH; ABUTH, individual, use rate 10 g ai/ha, read-out: observed % activity 20 DAT): 25% | inhibition at 6 g/ha (POLCO; Fallopia convolvulus, 480 h, 6 g ai/ha, 20 DAT, read-out: observed % activity): 0% | inhibition at 12 g/ha (POLCO; Fallopia convolvulus, 480 h, 12 g ai/ha, 20 DAT, read-out: observed % activity): 0% | inhibition at 10 g/ha (POLCO; Fallopia convolvulus, 480 h, POLCO, individual, use rate 10 g ai/ha, read-out: observed % activity 20 DAT): 25% | observed % activity 20 DAT (POLCO; POLCO, individual, use rate 5 g ai/ha): 40% | inhibition at 6 g/ha (ANTAR; 6 g ai/ha): 30% | inhibition at 12 g/ha (ANTAR; 12 g ai/ha): 60% | inhibition at 6 g/ha (COMBE; [3]): 20% | inhibition at 12 g/ha (COMBE; [4]): 45% | inhibition at 10 g/ha (COMBE; COMBE, individual, use rate 10 g ai/ha, read-out: observed % activity 20 DAT): 15% | inhibition at 6 g/ha (GALAP; [3]): 0% | inhibition at 5 g/ha (GALAP; GALAP, individual, use rate 5 g ai/ha, read-out: observed % activity 20 DAT): 25% | inhibition at 10 g/ha (GALAP; GALAP, individual, use rate 10 g ai/ha, read-out: observed % activity 20 DAT): 50% | inhibition at 6 g/ha (GERPU; [3]): 40% | inhibition at 12 g/ha (GERPU; [4]): 45% | inhibition at 12 g/ha (KCHSC; [4]): 98% | inhibition at 5 g/ha (KCHSC; KCHSC, individual, use rate 5 g ai/ha, read-out: observed % activity 20 DAT): 70% | inhibition at 10 g/ha (KCHSC; KCHSC, individual, use rate 10 g ai/ha, read-out: observed % activity 20 DAT): 65% | inhibition at 6 g/ha (SIDRH; [3]): 20% | inhibition at 10 g/ha (SIDRH; SIDRH, individual, use rate 10 g ai/ha, read-out: observed % activity 20 DAT): 30% | inhibition at 5 g/ha (CENCY; use rate 5 g ai/ha): 20% | inhibition at 10 g/ha (CENCY; use rate 10 g ai/ha): 30%
